Test results published in patent US9029559B2, “Substituted 3-heteroaroylamino-propionic acid derivatives and their use as pharmaceuticals” (SANOFI, priority 2011, dated 2015).

target: Recombinant human cathepsin A (Homo sapiens (Human), UniProt P10619); experiment: Cathepsin A inhibitory activity (cleavage of Bodipy FL-labeled bradykinin, microfluidic capillary electrophoresis); format: biochemical; settings: read-out: Activity (Cathepsin A inhibitory activity, IC50)
Sequence (P10619 29-326): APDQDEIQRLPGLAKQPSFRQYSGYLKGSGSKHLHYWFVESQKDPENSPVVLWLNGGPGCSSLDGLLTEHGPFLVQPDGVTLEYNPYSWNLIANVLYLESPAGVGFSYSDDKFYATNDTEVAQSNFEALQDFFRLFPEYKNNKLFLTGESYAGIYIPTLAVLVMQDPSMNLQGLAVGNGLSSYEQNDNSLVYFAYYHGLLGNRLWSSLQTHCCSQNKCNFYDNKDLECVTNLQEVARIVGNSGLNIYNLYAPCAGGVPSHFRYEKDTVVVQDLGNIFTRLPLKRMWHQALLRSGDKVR
Sequence (P10619 327-480): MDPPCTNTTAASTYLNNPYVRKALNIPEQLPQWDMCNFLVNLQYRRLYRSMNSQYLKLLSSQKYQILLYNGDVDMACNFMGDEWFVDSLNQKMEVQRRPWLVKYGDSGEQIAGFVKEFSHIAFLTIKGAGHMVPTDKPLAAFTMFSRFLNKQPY

Row | SMILES | IC50
1 | COc1ccc(C(=O)NC(CC(=O)O)c2ccccc2Cl)nc1Br (centres unmarked) [compound 598, 3-[(6-Bromo-5-methoxy-pyridine-2-carbonyl)-amino]-3-(2-chloro-phenyl)-propionic acid] | 1.46 µM
2 | O=C(O)C[C@H](NC(=O)c1cccc(-c2ccccc2F)n1)c1cccc(Cl)c1Cl [compound 606] | 3.93 µM
3 | O=C(O)C[C@H](NC(=O)c1cccc(-c2ccccc2Cl)n1)c1ccccc1C(F)(F)F [compound 612] | 1.66 µM
4 | O=C(O)CC(NC(=O)c1cc(Sc2ncccn2)ccn1)c1ccccc1Cl (centres unmarked) [compound 601] | 3.85 µM

same assay, conditions: read-out: Activity (IC50, cathepsin A inhibition)

Row | SMILES | IC50
5 | O=C(O)CC(NC(=O)c1ccnc(N2CCCC2)c1)c1ccccc1Cl (centres unmarked) [compound 553] | 11.1 µM
6 | COc1ccc(C(=O)N[C@@H](CC(=O)O)c2ccccc2Cl)nc1-c1ccc(C#N)cc1F [compound 494] | 11.4 µM
7 | O=C(O)C[C@@H](Cc1ccccc1)NC(=O)c1cccc(-c2ccccc2F)n1 [compound 561] | 5.33 µM
8 | COc1ccc(C(=O)N[C@@H](CC(=O)O)c2ccccc2Cl)nc1-c1cccc(C2(O)COC2)c1 [compound 495] | 3.89 µM
9 | COc1ccc(C(=O)N[C@@H](CC(=O)O)c2ccccc2Cl)nc1-c1cc(C)ccc1Cl [compound 492] | 1.05 µM
10 | Cc1ccccc1[C@H](CC(=O)O)NC(=O)c1nc(Cl)ccc1Cl [compound 506] | 8.48 µM
11 | Cc1ccc([C@H](CC(=O)O)NC(=O)c2cccc(-c3ccccc3Cl)n2)cc1 [compound 580] | 15.6 µM
12 | COc1ccccc1-c1cccc(C(=O)NC(CC(=O)O)c2ccccc2Cl)n1 (centres unmarked) [compound 597] | 1.45 µM
13 | COc1ccc(C(=O)N[C@@H](CC(=O)O)c2ccccc2C)nc1-c1cccnc1 [compound 578] | 7.54 µM

same assay, conditions: read-out: Activity (IC50, cathepsin A inhibitory activity)

Row | SMILES | IC50
14 | COc1ccc(Cl)cc1-c1nc(C(=O)N[C@@H](CC(=O)O)c2ccc(C)cc2)ccc1OC [compound 233] | 2.24 µM
15 | COc1ccc(C(=O)N[C@@H](CC(=O)O)c2ccc(C)cc2)nc1-c1ccc(Cl)c(F)c1 [compound 246] | 4.48 µM
16 | COc1ccccc1-c1cncc(C(=O)N[C@@H](CC(=O)O)c2ccccc2C)c1 [compound 67] | 4.97 µM
17 | COc1ccc(C(=O)N[C@@H](CC(=O)O)c2ccc(C)cc2)nc1-c1ccc(F)nc1 [compound 227] | 7.63 µM
18 | COc1ccc(C(=O)N[C@@H](CC(=O)O)c2ccccc2Cl)nc1-c1cccc(C(C)=O)c1 [compound 435] | 4.2 µM
19 | COc1ccc(C(=O)N[C@@H](CC(=O)O)c2ccc(C)cc2)nc1-c1ccc2ccn(C)c2c1 [compound 251] | 8.94 µM
20 | COc1ccc(-c2cc(C(=O)N[C@@H](CC(=O)O)c3ccccc3C)cnc2OC)cc1 [compound 409] | 9.04 µM
21 | COc1ccc(C(=O)N[C@@H](CC(=O)O)c2ccccc2F)nc1-c1ccc(F)c(C)c1 [compound 292] | 4.13 µM
22 | COc1ccc(C(=O)N[C@@H](CC(=O)O)c2ccccc2Cl)nc1-c1cccnc1 [compound 444] | 10.1 µM
23 | COc1ccc(C(=O)N[C@@H](CC(=O)O)c2ccccc2F)nc1-c1ccc(Cl)cc1 [compound 258] | 5.27 µM
24 | COc1ccc(C(=O)N[C@@H](CC(=O)O)c2ccccc2Cl)nc1-c1cccc(C#N)c1 [compound 433] | 8.26 µM
25 | COc1ncc(C(=O)N[C@@H](CC(=O)O)c2ccccc2C)cc1-c1ccc(F)c(Cl)c1 [compound 406] | 10 µM
26 | COc1ncc(C(=O)N[C@@H](CC(=O)O)c2ccccc2C)cc1-c1ccc(F)c(F)c1 [compound 425] | 8.84 µM
27 | COc1ccc(C(=O)N[C@@H](CC(=O)O)c2ccc(C)cc2)nc1-c1ccc(C)o1 [compound 237] | 3.54 µM
28 | COc1ncc(C(=O)N[C@@H](CC(=O)O)c2ccccc2C)cc1-c1ccccc1 [compound 405] | 3.9 µM
29 | Cc1ccccc1[C@H](CC(=O)O)NC(=O)c1ccnc(-c2ccccc2F)c1 [compound 97] | 2.71 µM
30 | COc1ncc(C(=O)N[C@@H](CC(=O)O)c2ccccc2Cl)cc1-c1ccc(F)cc1C [compound 404] | 7.14 µM
31 | COc1ccc(Cl)cc1-c1nc(C(=O)N[C@@H](CC(=O)O)c2ccccc2F)ccc1OC [compound 300] | 4.11 µM
32 | COc1ccc(C(=O)N[C@@H](CC(=O)O)c2ccccc2Cl)nc1-c1ccc(C)c(F)c1 [compound 449] | 2.02 µM
33 | COc1ccc(F)c(-c2nc(C(=O)N[C@@H](CC(=O)O)c3ccc(C)cc3)ccc2OC)c1 [compound 239] | 1.16 µM
34 | COc1ccc(C(=O)N[C@@H](CC(=O)O)c2ccccc2Cl)nc1-c1ccnc(N2CCOCC2)c1 [compound 490] | 9.08 µM
35 | COc1ncc(C(=O)N[C@@H](CC(=O)O)c2ccccc2C)cc1-c1ccc(Cl)cc1 [compound 408] | 5.73 µM
36 | COc1cc(F)ccc1-c1cncc(C(=O)N[C@@H](CC(=O)O)c2ccccc2C)c1 [compound 85] | 7.83 µM
37 | COc1ccccc1-c1cc(C(=O)N[C@@H](CC(=O)O)c2ccccc2C)cnc1OC [compound 416] | 3.42 µM
38 | Cc1ccccc1[C@H](CC(=O)O)NC(=O)c1ccccn1 [compound 5] | 3.98 µM
39 | COc1ccc(C(=O)N[C@@H](CC(=O)O)c2ccc(C)cc2)nc1-c1cc(C(F)(F)F)ccc1F [compound 236] | 3.57 µM

same assay, conditions: read-out: Activity [μM] (IC50, cathepsin A inhibitory activity)

Row | SMILES | IC50
40 | COc1ccc(C(=O)N[C@@H](CC(=O)O)c2ccc(C)cc2)nc1-c1ccc(F)cc1 [compound 185] | 1.29 µM
41 | COc1ccc(C(=O)N[C@@H](CC(=O)O)c2ccccc2C)nc1-c1cncnc1 [compound 372] | 8.88 µM
42 | COc1ccc(C(=O)N[C@@H](CC(=O)O)c2ccccc2C)nc1-c1cccc(C2(O)COC2)c1 [compound 384] | 2.39 µM
43 | COc1ccc(C(=O)N[C@@H](CC(=O)O)c2ccccc2F)nc1-c1cc(C)ccc1Cl [compound 323] | 2.31 µM
44 | COc1ccc(C(=O)N[C@@H](CC(=O)O)c2ccccc2C)nc1-c1ccc(F)nc1 [compound 373] | 1.6 µM
45 | Cc1ccccc1[C@H](CC(=O)O)NC(=O)c1ccnc(-c2cccc(Cl)c2Cl)c1 [compound 123] | 3.7 µM
46 | COc1ccc(C(=O)N[C@@H](CC(=O)O)c2ccccc2C)nc1-c1ccc(F)c(Cl)c1 [compound 349] | 1.46 µM
47 | COc1ccc(C(=O)N[C@@H](CC(=O)O)c2ccc(C)cc2)nc1-c1cccc(Cl)c1 [compound 193] | 2.74 µM
48 | COc1ccc(C(=O)N[C@@H](CC(=O)O)c2ccc(C)cc2)nc1-c1ccc2ccccc2c1 [compound 195] | 8.83 µM
49 | COc1ccc(C(=O)N[C@@H](CC(=O)O)c2ccccc2Cl)nc1-c1ccc(Cl)cc1 [compound 334] | 1.81 µM
50 | COc1ncc(C(=O)N[C@@H](CC(=O)O)c2ccccc2Cl)cc1-c1ccc(Cl)cc1 [compound 386] | 10.4 µM
51 | COc1ncc(C(=O)N[C@@H](CC(=O)O)c2ccccc2Cl)cc1-c1cccc(C)c1 [compound 395] | 6.57 µM
52 | COc1ccc(C(=O)N[C@@H](CC(=O)O)c2ccccc2C)nc1-c1cccc(C(C)(C)O)c1 [compound 385] | 1.15 µM
53 | COc1ccc(C(=O)N[C@@H](CC(=O)O)c2ccccc2F)nc1-c1ccc(Cl)c(F)c1 [compound 313] | 3.55 µM
54 | Cc1ccc(-c2cncc(C(=O)N[C@@H](CC(=O)O)c3ccccc3C)c2)c(C)c1 [compound 117] | 5.27 µM
55 | COc1ccc(C(=O)N[C@@H](CC(=O)O)c2ccccc2F)nc1-c1cccc(C2(O)COC2)c1 [compound 326] | 8.46 µM
56 | Cc1ccccc1[C@H](CC(=O)O)NC(=O)c1cccc(-c2ccc(C(F)(F)F)cc2)n1 [compound 138] | 6.83 µM
